According to patent US9023789B2, “Amylin analogs and pharmaceutical compositions thereof” (Novo Nordisk A/S, priority 2012, dated 2015):
pIC50: −log10 of the molar value. Like-named read-outs stand apart in the source and are kept apart here. Numbered stars: 1 amine (or outer) side, 2 acyl side, 3 side chain; on linkers, the order of the positions; unused ones are H or OH. Bridge positions count the residues as written; N and C are the ends. Side chains are listed from the residue outwards. Peptide text beside a SMILES is read from it. * marks the point of attachment. C20 diacid = O=C(O)CCCCCCCCCCCCCCCCCCC(=O)*; γGlu = O=C(O)[C@H](CCC(=O)[*:2])N[*:1]

Legend:
[1] = ASSAY (IV) determination of solubility; type: physicochemical
Method in brief: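 Dissolve polypeptide in water ([…] stock); combine 1:1 with each 100 mM buffer (glycylglycine pH 3.0/4.0/5.0; bistrispropane pH 6.0/6.5/7.0/7.5/8.0); hold 18 hours at room temperature; centrifuge; quantify polypeptide by UPLC.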

[2] = target: T1, rat calcitonin receptor (Rattus norvegicus, UniProt P32214); assay: ASSAY (VIII) binding to the rat calcitonin receptor; settings: Table 7, read-out: rCTR bind IC50
T1 construct: expressed in transfected cells; host or cells: BHK tk'ts 13 (transient, FuGENE 6), membranes
T1 sequence (P32214 25-479 isoform P32214-2 limits assumed): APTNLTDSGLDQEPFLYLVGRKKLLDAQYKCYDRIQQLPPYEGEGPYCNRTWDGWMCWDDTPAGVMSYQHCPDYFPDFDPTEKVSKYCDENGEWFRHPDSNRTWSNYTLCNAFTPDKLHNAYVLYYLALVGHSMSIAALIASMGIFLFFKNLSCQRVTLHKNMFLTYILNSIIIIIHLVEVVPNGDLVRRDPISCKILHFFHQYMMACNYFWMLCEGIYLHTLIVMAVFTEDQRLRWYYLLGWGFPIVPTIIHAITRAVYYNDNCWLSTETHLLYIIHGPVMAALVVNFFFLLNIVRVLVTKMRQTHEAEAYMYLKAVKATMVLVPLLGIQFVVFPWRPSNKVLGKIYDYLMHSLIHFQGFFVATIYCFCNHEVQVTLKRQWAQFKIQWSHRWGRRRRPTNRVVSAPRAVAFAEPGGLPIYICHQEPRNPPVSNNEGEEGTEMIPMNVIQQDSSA
Method in brief: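 Rat calcitonin receptor is expressed transiently in BHK tk′ts 13 cells cultured in DMEM with 10% FBS. Roughly two days (approximately 48 hours) post-transfection, cells are harvested for membrane preparation.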

[3] = system: Sprague Dawley (SD) rats; assay: ASSAY (I) efficacy testing on appetite (food intake) using an ad libitum fed rat model; type: in vivo; settings: rat, 30 nmol/kg
Method in brief: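 Ad libitum fed SD rats (200–250 g) were housed singly on a reversed light/dark cycle and given one 0.01–3 mg/kg dose ip, po or sc just before lights-off, with 5–8 per dose group plus vehicle controls. Food intake was recorded hourly for 7 h, then at 24 h and sometimes 48 h; Grubbs outliers were excluded.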

[4] = bistrispropane buffer, pH 6.5, read-out: Solubility pH 6.5 Concentration
[5] = bistrispropane buffer, pH 7.5, read-out: Solubility pH 7.5 Concentration
[6] = bistrispropane buffer, pH 6.0, read-out: Solubility pH 6.0 Concentration
[7] = bistrispropane buffer, pH 7.0, read-out: Solubility pH 7.0 Concentration
[8] = bistrispropane buffer, pH 8.0, read-out: Solubility pH 8.0 Concentration
[9] = glycylglycine buffer, pH 3.0, read-out: Solubility pH 3.0 Concentration
[10] = glycylglycine buffer, pH 4.0, read-out: Solubility pH 4.0 Concentration
[11] = glycylglycine buffer, pH 5.0, read-out: Solubility pH 5.0 Concentration

SMILES | solubility at 18 h [1, 4] | solubility at 18 h [1, 5] | solubility at 18 h [1, 6] | solubility at 18 h [1, 7] | solubility at 18 h [1, 8] | solubility at 18 h [1, 9] | solubility at 18 h [1, 10] | solubility at 18 h [1, 11] | pIC50 [2] | Food intake reduction 0-24 h 30 nmol/kg (%) [3] | Food intake reduction 24-48 h 30 nmol/kg (%) [3]
CC[C@H](C)[C@H](NC(=O)[C@H](C)NC(=O)CNC(=O)[C@H](Cc1ccccc1)NC(=O)[C@H](CC(N)=O)NC(=O)[C@@H]1CCCN1C(=O)[C@H](CO)NC(=O)[C@H](CO)NC(=O)[C@H](Cc1c[nH]cn1)NC(=O)[C@H](CCCNC(=N)N)NC(=O)[C@H](CC(C)C)NC(=O)[C@H](Cc1ccccc1)NC(=O)[C@H](Cc1c[nH]cn1)NC(=O)[C@H](C)NC(=O)[C@H](CC(C)C)NC(=O)[C@H](CCCNC(=N)N)NC(=O)[C@H](CCC(N)=O)NC(=O)[C@@H](NC(=O)[C@H](C)NC(=O)[C@@H]1CSSC[C@H](NC(=O)[C@H](CCCCN)NC(=O)CC[C@H](NC(=O)CCCCCCCCCCCCCCCCCCC(=O)O)C(=O)O)C(=O)N[C@@H](CC(N)=O)C(=O)N[C@@H]([C@@H](C)O)C(=O)N[C@@H](C)C(=O)N[C@@H]([C@@H](C)O)C(=O)N1)[C@@H](C)O)C(=O)N1CCC[C@H]1C(=O)N[C@@H](CO)C(=O)N[C@@H](CO)C(=O)N[C@H](C(=O)N[C@@H](CC(N)=O)C(=O)N[C@H](C(=O)NCC(=O)N[C@@H](CO)C(=O)N[C@@H](CCC(=O)O)C(=O)N[C@H](C(=O)N[C@@H](Cc1ccc(O)cc1)C(N)=O)[C@@H](C)O)C(C)C)[C@@H](C)O [Example 30] ({C20 diacid-γGlu}-KCNTATCATQRLAHFLRHSSPNFGAIPSSTNVGSETY-NH2; disulfide 2-7) | ≥ 200 µM | ≥ 200 µM | ≥ 200 µM | ≥ 200 µM | ≥ 200 µM | ≥ 200 µM | ≥ 200 µM | ≥ 200 µM | 6.94 | 41% | 17%
CC[C@H](C)[C@H](NC(=O)[C@H](C)NC(=O)CNC(=O)[C@H](Cc1ccccc1)NC(=O)[C@H](CC(N)=O)NC(=O)[C@@H]1CCCN1C(=O)[C@H](CO)NC(=O)[C@H](CO)NC(=O)[C@H](Cc1c[nH]cn1)NC(=O)[C@H](CCCNC(=N)N)NC(=O)[C@H](CC(C)C)NC(=O)[C@H](Cc1ccccc1)NC(=O)[C@H](CCC(=O)O)NC(=O)[C@H](C)NC(=O)[C@H](CC(C)C)NC(=O)[C@H](CCCNC(=N)N)NC(=O)[C@H](CCC(N)=O)NC(=O)[C@@H](NC(=O)[C@H](C)NC(=O)[C@@H]1CSSC[C@H](NC(=O)[C@H](CCCCN)NC(=O)CC[C@H](NC(=O)CCCCCCCCCCCCCCCCCCC(=O)O)C(=O)O)C(=O)N[C@@H](CC(N)=O)C(=O)N[C@@H]([C@@H](C)O)C(=O)N[C@@H](C)C(=O)N[C@@H]([C@@H](C)O)C(=O)N1)[C@@H](C)O)C(=O)N1CCC[C@H]1C(=O)N[C@@H](CO)C(=O)N[C@@H](CO)C(=O)N[C@H](C(=O)N[C@@H](CC(N)=O)C(=O)N[C@H](C(=O)NCC(=O)N1CCC[C@H]1C(=O)N[C@@H](CC(N)=O)C(=O)N[C@H](C(=O)N[C@@H](Cc1ccc(O)cc1)C(N)=O)[C@@H](C)O)C(C)C)[C@@H](C)O [Example 32] ({C20 diacid-γGlu}-KCNTATCATQRLAEFLRHSSPNFGAIPSSTNVGPNTY-NH2; disulfide 2-7) | ≥ 200 µM | ≥ 200 µM | ≥ 200 µM | ≥ 200 µM | ≥ 200 µM | ≥ 200 µM | ≥ 200 µM | ≥ 200 µM | 8.22 | 62% | 7%
CC[C@H](C)[C@H](NC(=O)[C@H](C)NC(=O)CNC(=O)[C@H](Cc1ccccc1)NC(=O)[C@H](CC(N)=O)NC(=O)[C@@H]1CCCN1C(=O)[C@H](CO)NC(=O)[C@H](CO)NC(=O)[C@H](Cc1c[nH]cn1)NC(=O)[C@H](CCCNC(=N)N)NC(=O)[C@H](CC(C)C)NC(=O)[C@H](Cc1ccccc1)NC(=O)[C@H](CC(N)=O)NC(=O)[C@H](C)NC(=O)[C@H](CC(C)C)NC(=O)[C@H](CCCNC(=N)N)NC(=O)[C@H](CCC(N)=O)NC(=O)[C@@H](NC(=O)[C@H](C)NC(=O)[C@@H]1CSSC[C@H](NC(=O)[C@H](CCCCN)NC(=O)CC[C@H](NC(=O)CCCCCCCCCCCCCCCCCCC(=O)O)C(=O)O)C(=O)N[C@@H](CC(N)=O)C(=O)N[C@@H]([C@@H](C)O)C(=O)N[C@@H](C)C(=O)N[C@@H]([C@@H](C)O)C(=O)N1)[C@@H](C)O)C(=O)N1CCC[C@H]1C(=O)N[C@@H](CO)C(=O)N[C@@H](CO)C(=O)N[C@H](C(=O)N[C@@H](CC(N)=O)C(=O)N[C@H](C(=O)NCC(=O)N[C@@H](CO)C(=O)N[C@@H](CCCCN)C(=O)N[C@H](C(=O)N[C@@H](Cc1ccc(O)cc1)C(N)=O)[C@@H](C)O)C(C)C)[C@@H](C)O [Example 34] | ≥ 200 µM | ≥ 200 µM | ≥ 200 µM | ≥ 200 µM | ≥ 200 µM | ≥ 200 µM | ≥ 200 µM | ≥ 200 µM | 7.05 | 37% | 25%
CC[C@H](C)[C@H](NC(=O)[C@H](C)NC(=O)CNC(=O)[C@H](Cc1ccccc1)NC(=O)[C@H](CC(N)=O)NC(=O)[C@@H]1CCCN1C(=O)[C@H](CO)NC(=O)[C@H](CO)NC(=O)[C@H](Cc1c[nH]cn1)NC(=O)[C@H](CCCNC(=N)N)NC(=O)[C@H](CC(C)C)NC(=O)[C@H](Cc1ccccc1)NC(=O)[C@H](CC(N)=O)NC(=O)[C@H](C)NC(=O)[C@H](CC(C)C)NC(=O)[C@H](CCCNC(=N)N)NC(=O)[C@H](CCC(N)=O)NC(=O)[C@@H](NC(=O)[C@H](C)NC(=O)[C@@H]1CSSC[C@H](NC(=O)[C@@H](N)CCCCNC(=O)CC[C@H](NC(=O)CCCCCCCCCCCCCCCCCCC(=O)O)C(=O)O)C(=O)N[C@@H](CC(N)=O)C(=O)N[C@@H]([C@@H](C)O)C(=O)N[C@@H](C)C(=O)N[C@@H]([C@@H](C)O)C(=O)N1)[C@@H](C)O)C(=O)N1CCC[C@H]1C(=O)N[C@@H](CO)C(=O)N[C@@H](CO)C(=O)N[C@H](C(=O)N[C@@H](CC(N)=O)C(=O)N[C@H](C(=O)NCC(=O)N[C@@H](CO)C(=O)N[C@@H](CCCCN)C(=O)N[C@H](C(=O)N[C@@H](Cc1ccc(O)cc1)C(N)=O)[C@@H](C)O)C(C)C)[C@@H](C)O [Example 35] (H-K([γGlu-C20 diacid])CNTATCATQRLANFLRHSSPNFGAIPSSTNVGSKTY-NH2; disulfide 2-7; N-terminus assumed) | ≥ 200 µM | ≥ 200 µM | ≥ 200 µM | ≥ 200 µM | ≥ 200 µM | ≥ 200 µM | ≥ 200 µM | ≥ 200 µM | 7.21 | 51% | 15%
CC[C@H](C)[C@H](NC(=O)[C@H](C)NC(=O)CNC(=O)[C@H](Cc1ccccc1)NC(=O)[C@H](CC(N)=O)NC(=O)[C@@H]1CCCN1C(=O)[C@H](CO)NC(=O)[C@H](CO)NC(=O)[C@H](Cc1c[nH]cn1)NC(=O)[C@H](CCCNC(=N)N)NC(=O)[C@H](CC(C)C)NC(=O)[C@H](Cc1ccccc1)NC(=O)[C@H](CC(N)=O)NC(=O)[C@H](C)NC(=O)[C@H](CC(C)C)NC(=O)[C@H](CCCNC(=N)N)NC(=O)[C@H](CCC(N)=O)NC(=O)[C@@H](NC(=O)[C@H](C)NC(=O)[C@@H]1CSSC[C@H](NC(=O)[C@@H](N)CCCCNC(=O)COCCOCCNC(=O)CC[C@H](NC(=O)CCCCCCCCCCCCCCCCCCC(=O)O)C(=O)O)C(=O)N[C@@H](CC(N)=O)C(=O)N[C@@H]([C@@H](C)O)C(=O)N[C@@H](C)C(=O)N[C@@H]([C@@H](C)O)C(=O)N1)[C@@H](C)O)C(=O)N1CCC[C@H]1C(=O)N[C@@H](CO)C(=O)N[C@@H](CO)C(=O)N[C@H](C(=O)N[C@@H](CC(N)=O)C(=O)N[C@H](C(=O)NCC(=O)N[C@@H](CO)C(=O)N[C@@H](CCCNC(=N)N)C(=O)N[C@H](C(=O)N[C@@H](Cc1ccc(O)cc1)C(N)=O)[C@@H](C)O)C(C)C)[C@@H](C)O [Example 38] | ≥ 200 µM | ≥ 200 µM | ≥ 200 µM | ≥ 200 µM | ≥ 200 µM | ≥ 200 µM | ≥ 200 µM | ≥ 200 µM | 7.42 | 47% | 0%
